US20070249545A1, “DIHYDROFOLATE REDUCTASE INHIBITION BY EPIGALLOCATECHIN GALLATE COMPOUNDS” (priority 2004, published 2007)

Columns and labels:
chicken liver DHFR = molecular target: T1, chicken liver DHFR (Gallus gallus, UniProt P00378); assay: Kinetic analysis of inhibition of chicken liver DHFR; type: biochemical
T1 construct: from tissue; host or cells: chicken liver
Method: The activity of DHFR was determined at 25° C. by following the decrease of NADPH and DHF by absorbance measurements at 340 nm (ε=11,800 M^−1 cm^−1) by using a Perkin-Elmer Lambda-2 spectrophotometer with cuvettes of 1.0 cm light-path.
Experiments were performed at pH 7.58 and 25° C. in a buffer containing 2-(N-morpholino)ethanesulfonic acid (MES, 25 mM), sodium acetate (25 mM), tris(hydroxymethyl)aminomethane (Tris 50 mM), and NaCl (100 mM). To prevent the oxidation of catechins, the reaction mixture contained 1 mM ascorbic acid. The pH of the reaction was measured before and after of the experiment. The assays were started by the addition of enzyme. In the absence of the enzyme, the rate of change of absorbance was negligible.
Lineweaver-Burk plots were made of the reaction of chicken liver DHFR (3.3 nM) with DHF and NADPH. For initial velocity inhibition experiments one substrate (NADPH) was held constant at saturating concentration (100 μM) while the concentration of the other substrate (DHF) and the inhibitor (EGCG) were varied (FIG. 3). […] This initial concentration of saturating NADPH was considered as constant after the consumption of 10 μM DHF by the addition of enzyme. Data were fitted by nonlinear regression to the integrated form (31) of the Michaelis equation. The fitting was performed by using Marquart's algorithm (32) implemented in the Sigma Plot 2.01 for Windows (33). […]

S. maltophilia DHFR = S. maltophilia DHFR (Stenotrophomonas maltophilia, UniProt B2FPG1); type: biochemical; conditions: S. maltophilia DHFR
Method: For the DHFR extraction, S. maltophilia strain number 1, was inoculated onto fresh agar 24 h before using. Then, liquid medium was inoculated with the strain and these broth cultures were incubated at 37° C. and shaken at 100 cycles per min. Solid medium was MacConkey agar (Oxoid Ltd., Basingstoke, England). Liquid medium was Brilliant Green Bile 2% broth (Oxoid). Bacteria were grown to mid-log phase, harvested by centrifugation (1,600 rpm 30 min) and washed twice in 50 mM phosphate buffer (pH 7.0) followed each time by a new centrifugation (1,600 rpm 5 min). Cell lysis, centrifugation, and dialysis were carried out between 4 and 8° C. Fast protein liquid chromatography (FPLC) purification steps were performed at room temperature. […] After centrifugation at 36,000 rpm for 30 min to remove cell debris, the supernatant was filtered. This supernatant was brought to 40% saturation with solid ammonium sulfate under continuous stirring. After 1 h the solution was centrifuged at 35,000 rpm for 30 min and the pellet discarded. Additional ammonium sulfate was added to the clear supernatant to give 90% saturation and stirred for 1 h. After centrifugation, the precipitates were suspended in 2 ml of buffer B (10 mM potassium phosphate buffer, pH 7.4, 2 mM β-mercaptoethanol). Concentrated enzyme (2 ml samples) was loaded onto a […] gel-filtration column (Sephacryl S-75 16/60 Hi-Prep, Amersham Pharmacia Biotech Europe GmbH, Barcelona, Spain), equilibrated with buffer B and eluted at 0.5 ml/min. The active fractions were concentrated and stored at −80° C. until used.
Initial velocity inhibition experiments were carried out for the inhibition studies of S. maltophilia with TMP and EGCG. One substrate (NADPH) was held constant at saturating concentration while the other substrate (DHF) and the inhibitor (TMP or EGCG) were varied. To prevent the oxidation of EGCG the reaction mixture contained 1 mM N-acetylcysteine (Sigma). For MTX inhibition the slow development of […] inhibition was determined by continuously monitoring the disappearance of NADPH and DHF after initiation of the reaction by the addition of DHFR. Reaction mixtures contained buffer, NADPH (100 μM), DHF (20 μM), and various concentrations of MTX. The extent of recovery of enzymatic activity following inhibition induced by preincubation with DHFR inhibitors was determined as follows. DHFR was preincubated for 30 min at 25° C. in the buffer mixture containing MTX, TMP or EGCG. An aliquot of the incubation mixture was then diluted 500-fold into a reaction mixture containing buffer mixture, NADPH (100 μM), and DHF (20 μM). Recovery of enzyme activity was followed by continuous monitoring at 340 nm.
Provided that the concentration of free inhibitor is not substantially altered by the formation of an enzyme-NADPH-inhibitor complex, the progress curve for the inhibition in the presence of saturating NADPH can be described by Eqn. 1 (as above): P=vst+(v0−vs)(1−exp(−kobst))/kobs • where vs, v0 and kobs represent the steady-state velocity, initial velocity and apparent first-order rate constant, respectively. The apparent first-order rate constant is related to the inhibitor concentration by Eqn. 2, where Ki denotes the dissociation constants for the initial binding of MTX to the enzyme-NADPH complex. [formula]

S. maltophilia strain 1 = assay: Time kill assay for bactericidal and bacteriostatic effects; type: cell-based, Stenotrophomonas maltophilia
Method: A time kill assay was performed for strain 1. Glass tubes containing cation-adjusted Mueller-Hinton broth, with doubling antibiotic concentration were inoculated with 5×10^5 CFU/ml and were incubated at 37° C. for 24 h. Antibiotic concentrations were chosen to comprise three doubling dilutions above and two doubling dilutions below the broth dilution MIC. Inoculation of each serially diluted antibiotic tube was performed following NCCLS guidelines for broth dilution method. Viability counts of antibiotic-containing suspensions were carried out at 0, 3, 6, 12 and 24 h, by plating 10 μl aliquots of 10-fold dilutions from each tube in sterile saline onto Columbia agar supplemented with 5% of defibrinated sheep blood. The plates used to recover organisms were incubated for up to 24 h. The lower limit of sensibility of colony counts was 100 CFU/ml. Time kill assay results were analyzed by determining changes in the log10 CFU/ml compared to the counts at zero-time for the six different concentrations of EGCG. Bactericidal effect was defined at the lowest concentration that reduced the original inoculums by ≧3 log10 CFU/ml after a period of time and bacteriostatic if the inoculums was reduced by 0 to 3 log10 CFU/ml.

Caco-2 = assay: Growth of Caco-2 colon cancer cells; type: cell-based, human
Method: To determine whether EGCG inhibits DHFR activity in vivo, two human cancer cell, (Caco-2 from colon cancer and Jurkat T a lymphoma cell line) were incubated with various concentrations of EGCG in a standard medium.

urokinase = urokinase (Homo sapiens, UniProt P00749); conditions: in vitro; cited from earlier work
p16 = p16 methylation status in Caco-2 cells; conditions: EGCG 20 μM, 7-days treatment

Chain of S. maltophilia DHFR (B2FPG1 entry or part of it): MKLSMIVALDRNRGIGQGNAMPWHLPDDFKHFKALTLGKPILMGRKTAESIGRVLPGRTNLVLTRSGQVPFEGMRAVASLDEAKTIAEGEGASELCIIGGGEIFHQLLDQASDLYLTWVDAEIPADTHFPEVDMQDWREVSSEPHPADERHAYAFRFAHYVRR
T1 sequence (P00378 whole entry): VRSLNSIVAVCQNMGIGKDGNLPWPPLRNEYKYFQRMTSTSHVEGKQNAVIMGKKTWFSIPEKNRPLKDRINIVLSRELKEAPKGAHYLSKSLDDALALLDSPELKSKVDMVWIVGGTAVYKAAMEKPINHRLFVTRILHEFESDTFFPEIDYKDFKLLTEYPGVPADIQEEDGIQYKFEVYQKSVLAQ

(−)-epigallocatechin gallate [EGCG]
Ki (chicken liver DHFR; chicken liver DHFR, from secondary plot, read-out: KI as a competitive inhibitor of DHF): 10.3 µM
inhibition after preincubation and 500-fold dilution (chicken liver DHFR; enzyme 1.65 μM preincubated with 20 to 50 μM inhibitor for 30 min, 500-fold dilution into DHF/NADPH assay): did not produce any measurable inhibition
Type of inhibition observed (S. maltophilia DHFR): competitive (reversible)
Ki (S. maltophilia DHFR; competitive respect to DHF, read-out: inhibition constant (Ki)): 4.04 µM
effect of preincubation of the enzyme with inhibitor (S. maltophilia DHFR; preincubation 30 min, 500-fold dilution): did not showed any effect on enzymatic activity
regrowth (S. maltophilia strain 1; 64 μg/ml, after 12 h incubation): Regrowth was observed
concentration with bactericidal effect (S. maltophilia strain 1; at 12 h): 4 times the MIC
concentration with bacteriostatic effect (S. maltophilia strain 1; at 12 h): 2 times the MIC
apoptosis (Caco-2): induction of apoptosis
cell cycle effect (Caco-2): G0/G1 phase arrest
effects in HT medium and in the presence of folinic acid or thymine (Caco-2): highly attenuated
IC50 (Caco-2; standard medium, read-out: IC50 of cell growth): 30 µM
concentration needed to inhibit urokinase activity (urokinase): 2 to 10 mM
p16 methylation pattern (p16): changed from methylated to unmethylated
